Experimental data from patent publication EP0717040A1, “Thiazine or thiazepine derivatives which inhibit NOS” (Japan Tobacco Inc., priority 1994, dated 1996).
Counter-ions that a name gives are not always drawn.

Target: T1, inducible NO synthase (iNOS) (Rattus norvegicus, UniProt Q06518)
Assay: Activity to inhibit inducible NO synthase (iNOS) derived from rat macrophages; conversion of [3H]-L-arginine to [3H]-L-citrulline
Type: biochemical
Parameters: iNOS was extracted from the macrophages which have been treated with lipopolysaccharide and interferon-γ; endogenous in cells; host or cells: rat peritoneal macrophages treated with lipopolysaccharide and interferon-γ
Settings: iNOS from peritoneal macrophages treated with lipopolysaccharide and interferon-γ, 150 µM L-arginine, 30 minutes at 37°C; read-out: IC₅₀
Method: Activity to inhibit inducible NO synthase (iNOS) derived from rat macrophages
According to partly modified method of Y. Yui et al.(J. Biol. Chem., 266 (19), 12544-12547 (1991)), an iNOS fraction was prepared by applying lipopolysaccharide and interferon-γ to peritoneal macrophages. Thereafter, its enzymatic activity was measured based on the conversion of [³H]-L-arginine to [³H]-L-citrulline, in the same manner as in the case of cNOS.
To the iNOS thus extracted, a 50 mM Tris-HCl buffer solution (pH 7.4) containing 150 µM L-arginine, 5 mM NADPH, 5 mM DTT, 0.5 mM 5,6,7,8-tetrahydro-L-biopterin and 5 µM FAD was added together with a test compound and [³H]-L-arginine. The mixture was incubated for 30 minutes at 37°C. Thereafter, the reaction was terminated by adding a 25 mM sodium acetate buffer solution (pH 5.5) containing 1.25 mM L-citrulline, 2.5 mM EDTA and 0.25 mM EGTA. The reaction solution was passed through a cation-exchange resin. The obtained eluate was combined with the additional eluate obtained thereafter by eluting with water, and the radioactivity of the combined eluate was measured. The inhibition rate of the test compound on iNOS was calculated in the same manner as in Test 1. The concentration (IC₅₀) of the test compound required for inhibiting 50 % of the enzyme activity, were calculated.

`CC(C)C[C@@H]1CCSC(N)=N1` [Example 7, (R)-2-amino-5,6-dihydro-4-isobutyl-4H-1,3-thiazine hydrobromide] and `CC(C)C[C@H]1CCSC(N)=N1` [Example 8, (S)-2-amino-5,6-dihydro-4-isobutyl-4H-1,3-thiazine hydrobromide] are the same in IC50: 70 nM for the first, 70 nM for the second.

Going from `NC1=NC(O)CCS1` (centres unmarked) [Example 17, 2-amino-5,6-dihydro-4-hydroxyl-4H-1,3-thiazine hydrochloride] to `CC(C)OC1CCSC(N)=N1` (centres unmarked) [Example 20, 2-amino-5,6-dihydro-4-isopropoxy-4H-1,3-thiazine fumarate], the IC50 falls from 50 nM to 30 nM (1.7-fold). The second is the more potent here.

Compared with `CCCC[C@@H]1CCSC(N)=N1` [Example 5, (R)-2-amino-4-butyl-5,6-dihydro-4H-1,3-thiazine hydrobromide], `CCCC[C@H]1CCSC(N)=N1` [Example 6, (S)-2-amino-4-butyl-5,6-dihydro-4H-1,3-thiazine hydrobromide] is 1.8-fold higher in IC50: 40 nM for the first, 70 nM for the second. The first is the more potent here.

Going from `CC(C)[C@@H]1CCSC(N)=N1` [Example 1, (S)-2-amino-5,6-dihydro-4-isopropyl-4H-1,3-thiazine hydrobromide] to `CCC[C@H]1CCSC(N)=N1` [Example 4, (S)-2-amino-5,6-dihydro-4-propyl-4H-1,3-thiazine hydrobromide], the IC50 falls from 300 nM to 20 nM (15-fold).

With `CCCOC1CCSC(N)=N1` (centres unmarked) [Example 19, 2-amino-5,6-dihydro-4-propyloxy-4H-1,3-thiazine hydrochloride] the IC50 was 30 nM.

Target: T1, inducible NO synthase (iNOS)
Assay: Effect on rat-paw carrageenin edema model by inhibition of iNOS
Type: in vivo
Settings: oral, 1 hour prior to carrageenin; paw volume 4 hours after induction
Method: Effect on rat-paw carrageenin edema model by inhibition of inducible NO synthase (iNOS)
To a rat's left leg, 1 % carrageenin solution was subcutaneously administered to induce a paw edema. 4 hours after the induction, paw volume was measured. A test compound was orally administered 1 hour prior to the carrageenin administration. The suppression effect of the test compound was determined.

With `Br.CCC[C@@H]1CCSC(N)=N1` [Example 3, (R)-2-amino-5,6-dihydro-4-propyl-4H-1,3-thiazine hydrobromide] the “Suppression Effect” value was “○”.

Same assay, conditions: rat; oral, 1 hour prior to carrageenin; paw volume 4 hours after induction; read-out: Suppression Effect (ED₅₀)

`Br.CCC[C@@H]1CCSC(N)=N1` [Example 3, (R)-2-amino-5,6-dihydro-4-propyl-4H-1,3-thiazine hydrobromide] was tested, and the ED50 was 9 mg/kg.

Target: T2, constitutive NO synthase (cNOS) (Rattus norvegicus, UniProt P29476)
T2 construct: cNOS was extracted from a rat cerebellum; from tissue; host or cells: rat cerebellum
Assay: Activity to inhibit constitutive NO synthase (cNOS) derived from rat cerebellum; conversion of [3H]-L-arginine to [3H]-L-citrulline
Type: biochemical
Settings: not given
Method: Activity to inhibit constitutive NO synthase (cNOS) derived from rat cerebellum
The inhibition activity was tested according to a method of P. A. Bush et al. (Biochem, Biophys, Res. Commun., 185, 960-966 (1992)), using [³H]-L-arginine as a substrate and taking the conversion of [³H]-L-arginine to [³H]-L-citrulline as an index of the enzyme activity.
The test was conducted as follows: First, cNOS was extracted from a rat cerebellum with a 50 mM Tris-HCl buffer solution (pH 7.4) which contains 0.1 mM EDTA (ethylenediamine tetraacetate), 0.1 mM EGTA (ethyleneglycol bis(β-aminoethyl ether)-tetraacetate), 0.5 mM DTT (dithiothreitol), 1 µM PMSF (phenylmethylsulfonyl fluoride), 1 µM bestatin A, and 1 µM leupeptin. To the cNOS thus extracted, a 50 mM Tris-HCl buffer solution (pH 7.4) containing 10 µM L-arginine, 10 µM NADPH, 2 mM calcium chloride and calmoduline (0.1 µg), together with a test compound and [³H]-L-arginine were added. The mixture was incubated for 10 minutes at 25°C. The reaction was terminated by adding 20 mM sodium acetate buffer solution (pH 5.5) containing 1 mM L-citrulline, 2 mM EDTA, and 0.2 mM EGTA. The reaction solution was passed through a cation-exchange resin. This eluate was combined with another eluate which was obtained thereafter by eluting with water. To the combined eluate, a liquid scintillation cocktail was further added and its radioactivity (A) was measured. At the same time, the radioactivity (B) with respect to the case where the test compound was not added and the radioactivity (C) with respect to the case where an enzyme fraction was not added, were respectively measured. Then, the rate of cNOS inhibition was calculated in accordance with the following equation. The concentration (IC₅₀), at which the test compound can inhibit 50 % of the enzyme activity, were also calculated. Inhibition rate (%) = {1 - (A - C/B - C)} × 100 [formula]

For `NC1=N[C@H](Cc2ccccc2)CCS1` [Example 9, (R)-2-amino-4-benzyl-5,6-dihydro-4H-1,3-thiazine hydrobromide], the IC50 was 200 nM.

Same assay, conditions: cNOS extracted from rat cerebellum, 10 µM L-arginine, 10 minutes at 25°C; read-out: IC₅₀

First: (R)-2-amino-4-benzyl-4,5,6,7-tetrahydro-1,3-thiazepine hydrobromide [Example 15]
Second: CC(C)C[C@@H]1CCSC(N)=N1 [Example 7, (R)-2-amino-5,6-dihydro-4-isobutyl-4H-1,3-thiazine hydrobromide]
The IC50 of the first is 15-fold higher: 600 nM for the first, 40 nM for the second. The second is the more potent here.

Going from `CCC[C@@H]1CCCSC(N)=N1` [Example 13, (R)-2-amino-4,5,6,7-tetrahydro-4-propyl-1,3-thiazepine hydrobromide] to `NC1=NC(O)CCS1` (centres unmarked) [Example 17, 2-amino-5,6-dihydro-4-hydroxyl-4H-1,3-thiazine hydrochloride], the IC50 falls from 300 nM to 20 nM (15-fold).

First: CC(C)[C@H]1CCSC(N)=N1 [Example 2, (R)-2-amino-5,6-dihydro-4-isopropyl-4H-1,3-thiazine hydrobromide]
Second: CCCC[C@@H]1CCSC(N)=N1 [Example 5, (R)-2-amino-4-butyl-5,6-dihydro-4H-1,3-thiazine hydrobromide]
The IC50 of the first is 10-fold higher: 300 nM for the first, 30 nM for the second. The second is the more potent here.

First: CC(C)OC1CCSC(N)=N1 (centres unmarked) [Example 20, 2-amino-5,6-dihydro-4-isopropoxy-4H-1,3-thiazine fumarate]
Second: CC(C)[C@@H]1CCSC(N)=N1 [Example 1, (S)-2-amino-5,6-dihydro-4-isopropyl-4H-1,3-thiazine hydrobromide]
The IC50 of the first is 1.5-fold higher: 30 nM for the first, 20 nM for the second. The second is the more potent here.

Going from `CC(C)C[C@H]1CCSC(N)=N1` [Example 8, (S)-2-amino-5,6-dihydro-4-isobutyl-4H-1,3-thiazine hydrobromide] to `CCC[C@H]1CCSC(N)=N1` [Example 4, (S)-2-amino-5,6-dihydro-4-propyl-4H-1,3-thiazine hydrobromide], the IC50 falls from 80 nM to 30 nM (2.7-fold). The second is the more potent here.

`CCCC[C@H]1CCSC(N)=N1` [Example 6, (S)-2-amino-4-butyl-5,6-dihydro-4H-1,3-thiazine hydrobromide] and `CCCOC1CCSC(N)=N1` (centres unmarked) [Example 19, 2-amino-5,6-dihydro-4-propyloxy-4H-1,3-thiazine hydrochloride] are within 1.5-fold of each other in IC50: 30 nM for the first, 40 nM for the second.

Target: T3, neuronal NOS (nNOS) (Rattus norvegicus, UniProt P29476)
T3 construct: from tissue; host or cells: living rat (brain)
Assay: Effect on rat cerebral ischemia model by inhibition of nNOS: reperfusion model
Type: in vivo
Settings: dose 10 µg/kg intravenously, 10 minutes before occlusion, immediately before and 3 hours after reperfusion; infarct area after 48 hours
Source text: Effect on rat cerebral ischemia model by inhibition of neuronal NOS (nNOS): reperfusion model
A rat (weight: 300 g) was fasted overnight and a middle cerebral artery of the rat was occluded and then reperfused to prepare a cerebral ischemia model, according to the method of Koizumi et al. (Jpn. J. Stroke, 8, 1-8 (1986)). More specifically, a rat breathing naturally was immobilized under anesthesia with a laughing gas - oxygen mixed gas and halothane, and then, underwent cervical median dissection. A silicon-coated nylon thread was inserted into an internal carotid artery from a branched portion at which a right external carotid artery and the internal carotid artery is divided, thereby blocking the middle cerebral artery for 1.5 hours. Thereafter, the occluding of the middle cerebral artery was reperfused by removing a thread. After 48 hours, 6 coronal sections were prepared and stained by means of a triphenyltetrazolium chloride method. Non-stained portions were determined as infarct area. The test compound was intravenously injected 10 minutes before the occlusion of middle cerebral artery, immediately before, and 3 hours after reperfusion. The inhibitory effect of each compound was determined.

In the case of `Br.CCC[C@@H]1CCSC(N)=N1` [Example 3, (R)-2-amino-5,6-dihydro-4-propyl-4H-1,3-thiazine hydrobromide], the “Inhibitory Effect” value is reported as “○ (10)”.

Target: T4, endothelium nitric oxide synthase (eNOS) (Rattus norvegicus, UniProt Q62600)
T4 construct: from tissue; host or cells: living anesthetized rat
Assay: Blood pressure elevating activity in rat by inhibition of eNOS
Type: in vivo
Settings: dose to elevate mean blood pressure by 25 mmHg; anesthetized rat, administered via femoral vein
Method: Blood pressure elevating activity in rat by inhibition of endothelium nitric oxide synthase (eNOS) A rat was anesthetized with by peritoneal injection of sodium barbital (300 mg/kg) and catheters were inserted into a femoral artery and a femoral vein. Blood pressure was measured through the catheter inserted in the femoral artery and a test compound was administered through the catheter inserted in the femoral vein. […]

`Br.CCC[C@@H]1CCSC(N)=N1` [Example 3, (R)-2-amino-5,6-dihydro-4-propyl-4H-1,3-thiazine hydrobromide] was tested, and the ED₂₅ was 0.2 mg/kg.
